Results on two compounds are retold here after patent US8664252B2, “Phosphodiesterase type III (PDE III) inhibitors or CA2+-sensitizing agents for the treatment of hypertrophic cardiomyopathy” (Boehringer Ingelheim Vetmedica GmbH, priority 2008, dated 2014).

For the assay, the system named is Cats Suffering from HCM. Kind of assay: Treatment of a cat suffering from HCM with acute circulatory failure (clinical case). Type of assay: in vivo. Here is the method:
A 15 year old castrated male tomcat of mixed breed (mother Persian, father European short hair, bodyweight 6 kg) was brought to the veterinary clinic in March 2008. The animal was lethargic and unable to move. Examination of the cardiovascular system indicated acute circulatory failure, accompanied with tachycardia (>180 bpm). Echocardiographic investigation indicated a thickened left ventricular wall and septum, which are related to HCM.
Because of the desperate situation 1.25 mg pimobendan were applied orally with the expectation/fear that this measure would/could probably further deteriorate the status of the cat.
This treatment is still being continued.

As for `NS(=O)(=O)c1cc(C(=O)O)c(NCc2ccco2)cc1Cl` [furosemide], the “control of acute circulatory failure (clinical situation)” value (15 year old tomcat with HCM, 6 kg, furosemide 1 mg/kg i.v., immediate administration) is given as “did not result in a sufficient control of the situation”.

In the case of `COc1ccc(-c2nc3cc(C4=NNC(=O)CC4C)ccc3[nH]2)cc1` (stereo not drawn) [pimobendan, 4,5-dihydro-6-[2-(4-methoxyphenyl)-1H-benzimidazol-5-yl]-5-methyl-3 (2H)-pyridazinone], the “clinical symptoms / recovery” value (same cat, after insufficient furosemide, 1.25 mg pimobendan orally, single application) was “clinical symptoms improved and the cat recovered within a few hours”. Moreover, the “left ventricular filling and systolic function (ultrasound)” value (same cat, continued treatment 20 microgram/kg/day pimobendan orally) was “significant recovery of left ventricular filling and systolic function”.
